Here are results for six compounds from US20220264877A1, “MICROBIOCIDAL PICOLINAMIDE DERIVATIVES” (SYNGENTA CROP PROTECTION AG, priority 2019, published 2022).

Data set [1] deals with Monographella nivalis (Microdochium nivale). In words: Monographella nivalis (Microdochium nivale) / liquid culture (foot rot cereals). The note with it: 200 ppm in the formulation, PDB potato dextrose broth, 24° C., 4-5 days after application, vs untreated, read-out: disease control (inhibition of growth determined photometrically). It counts as cell-based. The protocol: Monographella nivalis (Microdochium nivale)/liquid culture (foot rot cereals) Conidia of the fungus from cryogenic storage are directly mixed into nutrient broth (PDB potato dextrose broth). After placing a (DMSO) solution of test compound into a microtiter plate (96-well format), the nutrient broth containing the fungal spores is added. The test plates are incubated at 24° C. and the inhibition of growth is determined photometrically 4-5 days after application.

For data set [2], the system named is Botryotinia fuckeliana (Botrytis cinerea). In words: Botryotinia fuckeliana (Botrytis cinerea) / liquid culture (gray mould). The note with it: 200 ppm in the formulation, Vogels broth, 24° C., 3-4 days after application, vs untreated, read-out: disease control (inhibition of growth determined photometrically). It counts as cell-based. The protocol:
Botryotinia fuckeliana (Botrytis cinerea)/Liquid Culture (Gray Mould) Conidia of the fungus from cryogenic storage are directly mixed into nutrient broth (Vogels broth). After placing a (DMSO) solution of test compound into a microtiter plate (96-well format), the nutrient broth containing the fungal spores is added. The test plates are incubated at 24° C. and the inhibition of growth is determined photometrically 3-4 days after application.

Data set [3] has as its system Glomerella lagenarium (Colletotrichum lagenarium). In words: Glomerella lagenarium (Colletotrichum lagenarium) / liquid culture (anthracnose). The data set is classed as cell-based. The note with it: Colletotrichum orbiculare; 200 ppm in the formulation; PDB potato dextrose broth, 24° C., 3 to 4 days after application, vs untreated; read-out: disease control (inhibition of growth measured photometrically). The protocol: Glomerella lagenarium (Colletotrichum lagenarium)/Liquid Culture (Anthracnose) Conidia of the fungus from cryogenic storage are directly mixed into nutrient broth (PDB potato dextrose broth). After placing a (DMSO) solution of test compound into a microtiter plate (96-well format), the nutrient broth containing the fungal spores is added. The test plates are incubated at 24° C. and the inhibition of growth is measured photometrically 3 to 4 days after application.

Data set [4] deals with Mycosphaerella arachidis (Cercospora arachidicola). In words: Mycosphaerella arachidis (Cercospora arachidicola) / liquid culture (early leaf spot). It counts as cell-based. The note with it: 200 ppm in the formulation, PDB potato dextrose broth, 24° C., 4-5 days after application, vs untreated, read-out: disease control (inhibition of growth determined photometrically). The protocol: Mycosphaerella arachidis (Cercospora arachidicola)/Liquid Culture (Early Leaf Soot) Conidia of the fungus from cryogenic storage are directly mixed into nutrient broth (PDB potato dextrose broth). After placing a (DMSO) solution of test compound into a microtiter plate (96-well format), the nutrient broth containing the fungal spores is added. The test plates are incubated at 24° C. and the inhibition of growth is determined photometrically 4-5 days after application.

Data set [5] relates to Mycosphaerella graminicola (Septoria tritici). Description: Mycosphaerella graminicola (Septoria tritici) / liquid culture (Septoria blotch). The data set is classed as cell-based. The note with it: Zymoseptoria tritici; 200 ppm in the formulation; PDB potato dextrose broth, 24° C., 4 to 5 days after application, vs untreated; read-out: disease control (inhibition of growth determined photometrically). The protocol:
Mycosphaerella graminicola (Septoria tritici)/Liquid Culture (Septoria Blotch) Conidia of the fungus from cryogenic storage are directly mixed into nutrient broth (PDB potato dextrose broth). After placing a (DMSO) solution of test compound into a microtiter plate (96-well format), the nutrient broth containing the fungal spores is added. The test plates are incubated at 24° C. and the inhibition of growth is determined photometrically 4 to 5 days after application.

Another data set has as its system Pythium ultimum. In words: Pythium ultimum / liquid culture (seedling damping off). The note with it: Globisporangium ultimum; 200 ppm in the formulation; PDB potato dextrose broth, 24° C., 2-3 days after application, vs untreated; read-out: disease control (inhibition of growth determined photometrically). It counts as cell-based. The protocol: Pythium ultimum/Liquid Culture (Seedling Damping Off) Mycelia fragments and oospores of a newly grown liquid culture of the fungus are directly mixed into nutrient broth (PDB potato dextrose broth). After placing a (DMSO) solution of test compound into a microtiter plate (96-well format), the nutrient broth containing the fungal mycelia/spore mixture is added. The test plates are incubated at 24° C. and the inhibition of growth is determined photometrically 2-3 days after application.

For the next data set, the system named is Plasmopara viticola. The data set is classed as in vivo. The note with it: 200 ppm in the formulation; grape vine leaf disks, inoculated 1 day after application, assessed 6 to 8 days after application, vs untreated.

Each structure is given as a SMILES string.

By inhibition is commonly meant the drop in the measured response relative to a control, in per cent. Turning to `CC(C)C(=O)OCOc1c(NC=O)ccnc1C(=O)N[C@@H](C)C(=O)OC(C)C(c1ccccc1)c1ccccc1` (stereo partly drawn) [Compound I.k.33, [4-formamido-2-[[(1S)-1-methyl-2-(1-methyl-2,2-diphenyl-ethoxy)-2-oxo-ethyl]carbamoyl]-3-pyridyl]oxymethyl 2-methylpropanoate], the inhibition at 200 ppm in data set [1], in data set [2], in data set [3], in data set [4] and in data set [5] was at least 80% in each case.
For `CC(OC(=O)[C@H](C)NC(=O)c1nccc(N)c1O)C(c1ccc(F)cc1)c1ccc(F)cc1` (stereo partly drawn) [I.w.42, [2,2-bis(4-fluorophenyl)-1-methyl-ethyl] (2S)-2-[(4-amino-3-hydroxy-pyridine-2-carbonyl)amino]propanoate], the inhibition at 200 ppm in data set [1], in data set [2], in data set [3], in data set [4] and in data set [5] was at least 80% in each case.
Consider `CC(C)C(=O)OCOc1c(N)ccnc1C(=O)N[C@@H](C)C(=O)OC(C)C(c1ccc(F)cc1)c1ccc(F)cc1` (stereo partly drawn) [I.y.42, [4-amino-2-[[(1S)-2-[2,2-bis(4-fluorophenyl)-1-methyl-ethoxy]-1-methyl-2-oxo-ethyl]carbamoyl]-3-pyridyl]oxymethyl 2-methylpropanoate], for which the inhibition at 200 ppm in data set [1], in data set [2], in data set [4] and in data set [5] was at least 80% in each case.
One may read the melting point as the temperature, or range, at which the solid turns liquid. In the case of `CC(OC(=O)[C@H](C)NC(=O)c1nccc(NC=O)c1O)C(c1ccc(F)cc1)c1ccc(F)cc1` (stereo partly drawn) [Compound I.a.42, [2,2-bis(4-fluorophenyl)-1-methyl-ethyl] (2S)-2-[(4-formamido-3-hydroxy-pyridine-2-carbonyl)amino] propanoate], the melting point is 101 to 113 °C. In the data set on Pythium ultimum, the inhibition at 200 ppm was at least 80%. Moreover, the inhibition at 200 ppm in data set [1] is at least 80%. The inhibition at 200 ppm in data set [2] was at least 80%. In addition, in the data set on Plasmopara viticola, the disease control result was “at least 80%”. The inhibition at 200 ppm in data set [4] was at least 80%. Moreover, the inhibition at 200 ppm in data set [5] is at least 80%.
In the case of `CC(C)C(=O)OCOc1c(NC=O)ccnc1C(=O)N[C@@H](C)C(=O)OC(C)C(c1ccc(F)cc1)c1ccc(F)cc1` (stereo partly drawn) [Compound I.k.42, [2-[[(1S)-2-[2,2-bis(4-fluorophenyl)-1-methyl-ethoxy]-1-methyl-2-oxo-ethyl]carbamoyl]-4-formamido-3-pyridyl]oxymethyl 2-methylpropanoate], the inhibition at 200 ppm in data set [1], in data set [2], in data set [3], in data set [4] and in data set [5] was at least 80% in each case.
Take `CC(C)C(=O)OCOc1c(N)ccnc1C(=O)N[C@@H](C)C(=O)OC(C)C(c1ccccc1)c1ccccc1` (stereo partly drawn) [I.y.33, [4-amino-2-[[(1S)-1-methyl-2-(1-methyl-2,2-diphenyl-ethoxy)-2-oxo-ethyl]carbamoyl]-3-pyridyl] oxymethyl 2-methylpropanoate]: the inhibition at 200 ppm in data set [1], in data set [2], in data set [4] and in data set [5] was at least 80% each time.
